Results as given in patent publication US5232685A, “Nonionic x-ray contrast medium with high iodine content” (Schering Aktiengesellschaft, priority 1989, dated 1993).

Legend:
[1] = Osmolality of contrast medium solutions; assay type: physicochemical
[2] = Viscosity of contrast medium solutions; assay type: physicochemical; settings: for Viscosity: 37° C.
mouse = assay: LD50 mouse i.v.; assay type: in vivo
Renal excretion = assay type: in vivo; settings: in words
Chemical stability = assay type: physicochemical; settings: in words
Water solubility = assay type: physicochemical; settings: in words

Row | SMILES | Osmolality ([1]; 370 mg I/ml (37° C.)) | Viscosity ([2]; 370 mg I/ml) | LD50 (mouse) | Osmolality ([1]; 350 mg I/ml (*) (37° C.)) | Viscosity ([2]; 350 mg I/ml (*)) | other results
1 | C[C@H](O)C(=O)Nc1c(I)c(C(=O)NC(CO)CO)c(I)c(C(=O)NC(CO)CO)c1I [Iopamidol] | 830 mosm/kg H2 O | 9.4 cP | 15 g I/kg |  |  | 
2 | CN(C(=O)CO)c1c(I)c(C(=O)NCC(O)CO)c(I)c(C(=O)NCC(O)CO)c1I (stereo not shown) [Iomeprol] | 680 mosm/kg H2 O | 8.6 cP | 14 g I/kg |  |  | Greatest improvement of osmolality within the previously known five contrast media ([1]; Iopamidol/Iomeprol (Iomeprol versus Iopamidol)): 18.1%
3 | CN(CC(O)CO)C(=O)c1c(I)c(NC(=O)CO)c(I)c(C(=O)NCCO)c1I (stereo not shown) [Example 1, 5-Hydroxyacetamido-2,4,6-triido-isophthalic acid-(2,3-dihydroxy-N-methyl-propyl)-(2-hydroxy-ethyl)-diamide] | 590 mosm/kg H2 O | 6.6 cP | 18 g I/kg |  |  | Improvement of osmolality value ([1]; in comparison with iopromide): 23.4%; Renal excretion (Renal excretion): very quick, selective renal excretion; Improvement of viscosity value ([2]; in comparison with iopromide): 30.5%; Chemical stability (Chemical stability): good chemical stability; Water solubility (Water solubility): very water-soluble
4 | CC(=O)N(CC(O)CO)c1c(I)c(C(=O)NCC(O)CO)c(I)c(C(=O)NCC(O)CO)c1I (stereo not shown) [Iohexol] |  |  | 15 g I/kg | 820 mosm/kg H2 O | 10.5 cP | 
5 | COCC(=O)Nc1c(I)c(C(=O)NCC(O)CO)c(I)c(C(=O)N(C)CC(O)CO)c1I (stereo not shown) [Iopromide] | 770 mosm/kg H2 O | 9.5 cP | 15 g I/kg |  |  | 
6 | CC(=O)N(CC(O)CO)c1c(I)c(C(=O)NCCO)c(I)c(C(=O)NCC(O)CO)c1I (stereo not shown) [Ioxilan] |  |  | 15 g I/kg | 700 mosm/kg H2 O | 8.1 cP | Greatest improvement of viscosity within the previously known five contrast media ([2]; Iohexol/Ioxilan (Ioxilan versus Iohexol)): 22.9%
